# Where two headings read alike, the source gives them in different places.
# Assays:
# [1] = biological target: voltage sensitive sodium channel (neurotoxin receptor Site 2); test: [3H]BTX binding assay; conditions: rat cortical synaptosomes
# [2] = biological target: T1, glycine recognition site of the NMDA receptor complex (Rattus norvegicus, UniProt P35439); test: [3H]5,7-DCKA binding assay; conditions: rat cortical membranes; none = no displacement at 100 μM
# T1 construct: The telencephalon (cerebral cortex, hippocampus, and striatum) was dissected and homogenized; from tissue; host or cells: rat telencephalon membranes (cerebral cortex, hippocampus, striatum), Triton X-100 treated
# Protocol: General receptor-binding procedures. Male Sprague-Dawley rats were decapitated and their brains removed rapidly. The telencephalon (cerebral cortex, hippocampus, and striatum) was dissected and homogenized in 20 volumes of ice-cold 0.32 M sucrose, 20 mM HEPES-KOH (pH 7.2 at room temperature) containing protease inhibitors ([…], 5 mg/mL antipain, 20 mg/mL soybean trypsin inhibitor, 500 μM benzamidine, […] aprotinin, and 500 μM phenylmethylsulfonyl fluoride) with a motor driven glass-TEFLON® fluorocarbon homogenizer (8-10 strokes at setting 1). The homogenate was centrifuged at 800 g for 10 minutes. The pellet was discarded and the supernatant was centrifuged at 20,000 g for 20 minutes. The resulting pellet was resuspended in 20 volumes of distilled water containing 500 μM benzamidine and centrifuged for 20 minutes at 7500 g. Then the supernatant and buffy coat were centrifuged three times (51,500 g for 20 minutes) in the presence of distilled water containing 500 μM benzamidine. All centrifugation steps were carried out at 4° C. The final pellet was frozen rapidly at −80° C.
# On the day of the assay, the pelleted membranes were resuspended in 20 volumes of 50 mM HEPES-KOH buffer, pH 7.4, and incubated for 20 minutes at 37° C. followed by centrifugation (51,500 g for 20 minutes). Membranes were then resuspended in 50 mM HEPES-KOH buffer (pH 7.8) containing 0.08% Triton X-100. After stirring for 30 minutes at 4° C., the membranes were pelleted by centrifugation (100,000 g for 20 minutes). The membranes were then washed twice by resuspension in the buffer appropriate for the binding assay and centrifugation (100,000 g for 20 minutes). The final pellet was suspended in assay buffer. The amount of protein in the final membrane preparation was determined with the bicinchoninic acid method (BCA; Pierce Chemical Co., Rockford, Ill.). The final protein concentration used for our studies was 300 to 600 μg/mL. Receptor-binding protocols described below were adapted from published procedures. For all assays, the samples, all in duplicate or triplicate, were placed into scintillation vials containing 5.5 mL of scintillation liquid (Ultima Gold; Packard Instrument Co., Inc., Meriden, Conn.) and the retained radioactivity was determined by conventional scintillation spectroscopy with a Beckman TA-6000 scintillation counter. Radio-ligands were purchased from DuPont-NEN (Boston, Mass.).
# [^3H]5,7-Dichlorokynurenic acid (5,7-DCKA)-binding assay. The glycine recognition site of the NMDA receptor complex was labeled with the competitive antagonist [^3H]5,7-dichlorokynurenic acid (5,7-DCKA). […]
# Data Analysis. The data were analyzed with SigmaPlot 5.0 and SigmaStat 2.0 (Jandel Scientific, Corte Madera, Calif.) software. […]
structure (smiles),measurement,setting,value
"O=C(O)c1cc(NC(=O)N(c2ccccc2)c2ccccc2)c2c(Cl)cc(Cl)cc2n1 [DCUKA, N,N-diphenyl-4-ureido-5,7-dichloro-2-carboxyquinoline]",IC50,"[1]; depolarizing conditions (135 mM KCl), read-out: IC50 [3H]BTX binding under depolarizing conditions (value in parentheses)",30 µM
same,IC50,"[1]; none = no displacement at 100 μM, read-out: IC50 [3H]BTX binding",76 µM
same,IC50,[2],28 µM
